# Results: patent US12606546B2, “Small molecule inhibitors of calcium channel activity and uses thereof” (Arizona Board of Regents on Behalf of the University of …, priority 2020, dated 2026)
# Read-outs that look alike come from different tables or passages of the source.
# Key:
# rats [1] = settings: carrageenan, paw pressure test, 30 mg/kg p.o., T60 min; cited from earlier work
# rats [2] = settings: kaolin, gait score, 30 mg/kg p.o., T60 min; cited from earlier work
# [3] = target: influenza virus polymerase PA-PB1 protein-protein interactions (Influenza A virus, UniProt P03433); settings: previously tested [93]; cited from earlier work
# healthy rats [4] = settings: paw pressure test, 4 mg/kg s.c., T30 min; cited from earlier work
# healthy rats [5] = settings: tail flick test, 4 mg/kg s.c., T30 min; cited from earlier work
# rats [6] = settings: formalin test, 4 mg/kg s.c., T30 min, cited from earlier work
# rats [7] = settings: Brennan model, electronic Von Frey test, 4 mg/kg s.c., T30 min; cited from earlier work
# rats [8] = settings: oxaliplatin, paw immersion test, 100 mg/kg p.o., T60 min; cited from earlier work
# [9] = tested on: total calcium current in small- to medium-sized DRG neurons; assay: Whole-cell patch clamp of total Ca2+ currents in DRG neurons; type: cell-based, rat; settings: for Activation V1/2 / Activation k (slope factor) / Inactivation V1/2 / Inactivation k (slope factor): Boltzmann fit, mean ± SEM; for peak calcium current density: overnight (DMSO −96.91±12.39); for reduction in Ca2+ currents at peak current density: overnight, compared to 0.1% DMSO
# Description: Recordings were obtained from acutely dissociated DRG neurons as described in Bellampalli et al. Patch-clamp recordings were performed at room temperature (22-24° C.). Currents were recorded using an EPC 10 Amplifier-HEKA (HEKA Elektronik, Ludwigshafen, Germany) linked to a computer with Patchmaster software. DRG neurons were incubated overnight (˜16-24 h) with 20 μM of 3-25-R and 3-14-3-S.
# For total calcium current (ICa^2+) recordings, the external solution consisted of the following (in mM): 110 N-methyl-D-glucamine, 10 BaCl2, 30 TEA-Cl, 10 HEPES, 10 glucose, 0.001 TTX (pH 7.29 adjusted with NaOH, and mOsm/L=310). Patch pipettes were filled with an internal solution containing (in mM): 150 […], 10 HEPES, 5 Mg-ATP, and 5 BAPTA, (pH 7.24 adjusted with CsOH, and from a holding potential of −90 mV to obtain the current-voltage (I-V) relation. Normalization of currents to each cell's capacitance (pF) was performed to allow for collection of current density data. For I-V curves, functions were fitted to data using a non-linear least squares analysis. I-V curves were fitted using double Boltzmann functions: f=a+g1/(1+exp((x−V1/21)/k1))+g2/(1+exp(−(x−V1/22)/k2)) where x is the prepulse potential, V1/2 is the mid-point potential and k is the corresponding slope factor for single Boltzmann functions. Double Boltzmann fits were used to describe the shape of the curve, not to imply the existence of separate channel populations. Numbers 1 and 2 simply indicate first and second mid-points; a along with g are fitting parameters.
# Activation curves were obtained from the I-V curves by dividing the peak current at each depolarizing step by the driving force according to the equation: G=I/(Vmem−Erev), where I is the peak current, Vmem is the membrane potential and Erev is the reversal potential. The conductance (G) was normalized against the maximum conductance (Gmax). Steady-state inactivation (SSI) curves were obtained by applying an H-infinity protocol that consisted of 1.5-seconds conditioning pre-pulses from −100 to +30 mV in 10-mV increments followed by a 20-millisecond test pulse to +10 mV. Inactivation curves were obtained by dividing the peak current recorded at the test pulse by the maximum current (Imax). Activation and SSI curves were fitted with the Boltzmann equation.
# CaV3.1 = target: T1, CaV3.1 (Homo sapiens, UniProt O43497); assay: Whole-cell patch clamp in HEK293T cells transiently expressing CaV3.1; type: cell-based; settings: for effect on CaV3.1 mediated currents: 50 μM
# T1 construct: expressed in transfected cells; host or cells: HEK293T
# Description: (§1) Human embryonic kidney HEK293T cells were cultured in DMEM supplemented with 10% fetal bovine serum and 1% penicillin/streptomycin sulfate, maintained in standard conditions (5% CO2, 37° C., saturated humidity). Cells were transfected with 2 μg of either of the channel cDNAs using Lipofectamine 2000 when cell confluence reached 70-90%. Four to six hours after transfection, cells were seeded onto poly-l-lysine-coated coverslips. Positively transfected cells were indicated by the fluorescence of co-transfected enhanced green fluorescent protein (0.2 μg). All the experiments were performed 36 hours after cell transfection.
# (§2) For electrophysiological recording, the external solution contained (in mM): 105 CsCl, TEA-Cl, 2 CaCl2), 1 MgCl2, and 10 glucose (pH 7.4 adjusted with CsOH, and mOsm/L=295-305). The internal solution consisted of (in mM): 120 CsMeSO4, 11 EGTA, 2 Mg-ATP, and HEPES (pH 7.4 adjusted with CsOH, and mOsm/L=295-305). All experiments were conducted at room temperature (22-24° C.). The T-type calcium currents were elicited by a depolarization to −20 or −10 mV for 200-millisecond from a hold potential of −90 mV. Data were collected by the Patchmaster software in a HEKA EPC-10 USB patch-clamp system. Voltage errors were minimized by using 80% series resistance compensation. The capacitance artifact was canceled by using the computer-controlled circuitry of the patch-clamp amplifier. The concentration-response curves of the test compounds on CaV3 channels were fitted to a Hill equation to estimate the potency of the compounds (IC50).
# CaV3.2 = target: T2, CaV3.2 (Homo sapiens, UniProt O95180); assay: Whole-cell patch clamp in HEK293T cells transiently expressing CaV3.2; type: cell-based; settings: for effect on CaV3.2 mediated currents: 50 μM
# T2 construct: expressed in transfected cells; host or cells: HEK293T
# Description: as §1, §2
# CaV3.3 = target: T3, CaV3.3 (Homo sapiens, UniProt Q9P0X4); assay: Whole-cell patch clamp in HEK293T cells transiently expressing CaV3.3; type: cell-based; settings: for effect on CaV3.3 mediated currents: 50 μM
# T3 construct: expressed in transfected cells; host or cells: HEK293T
# Description: as §1, §2
# healthy rats [10] = assay: ALGOGram: healthy rats, paw pressure test; type: in vivo, rat; settings: 0.4 μg/μl i.t., 120 min after treatment
# Description: (§3) The analgesic profile of 3-14-3-S was analyzed by an in vivo screening tool, ALGOGram™ (ANS Biotech, Riom, France). This platform allowed for obtaining information about the effects of compounds in 5 different pain areas (Acute and tonic pain, inflammatory pain, neuropathic pain, postoperative pain and visceral pain), by comparing their activity on a battery of 10 validated behavioral pain models with an ANS Biotech reference historical database (Table 1). Assessment of the efficacy, and analgesic effects of a single administration (0.4 μg/μl, i.t.) 3-14-3-S was analyzed in the rat models of. Tail flick test in healthy rats, paw pressure test in healthy rats, acetic acid-induced writhing, formalin test, Bennett model of peripheral mononeuropathy, oxaliplatin-induced neuropathy, carrageenan-induced mechanical hyperalgesia, kaolin-induced arthritis, Brennan model of incisional pain; and trinitrobenzene sulfonic acid (TNBS)-induced visceral hypersensitivity (Table 2).
# (§4) Testing: 120 min after treatment. n=4/model/test (excepted for 3-14-3-S-treated group in Oxaliplatin model n=3). Results are expressed for each group as a percentage of activity calculated from the mean value of the vehicle-treated animals and compared to naïve animals, control paw or cut-off value, depending on the test (from the ANS Biotech historical database). Ligand Docking
# healthy rats [11] = assay: ALGOGram: healthy rats, tail flick test; type: in vivo, rat; settings: 0.4 μg/μl i.t., 120 min after treatment
# Description: as §3, §4
# rats [12] = assay: ALGOGram: acetic acid test (abdominal cramps); type: in vivo, rat; settings: 0.4 μg/μl i.t., 120 min after treatment
# Description: as §3, §4
# rats [13] = assay: ALGOGram: formalin test (paw licking time); type: in vivo, rat; settings: 0.4 μg/μl i.t., 120 min after treatment
# Description: as §3, §4
# rats [14] = assay: ALGOGram: Bennett model of peripheral mononeuropathy (paw pressure test); type: in vivo, rat; settings: 0.4 μg/μl i.t., 120 min after treatment
# Description: as §3, §4
# rats [15] = assay: ALGOGram: oxaliplatin-induced neuropathy (paw immersion test); type: in vivo, rat; settings: 0.4 μg/μl i.t., 120 min after treatment, n=3
# Description: as §3, §4
# rats [16] = assay: ALGOGram: carrageenan-induced mechanical hyperalgesia (paw pressure test); type: in vivo, rat; settings: 0.4 μg/μl i.t., 120 min after treatment
# Description: as §3, §4
# rats [17] = assay: ALGOGram: TNBS-induced visceral hypersensitivity (colonic distension); type: in vivo, rat; settings: 0.4 μg/μl i.t., 120 min after treatment
# Description: as §3, §4
# [18] = tested on: high voltage activated calcium channels; assay: Fura-2AM calcium imaging, 90 mM KCl-evoked Ca2+ influx in DRG neurons; settings: separated enantiomers, data not shown
# T1 sequence (O43497 whole entry): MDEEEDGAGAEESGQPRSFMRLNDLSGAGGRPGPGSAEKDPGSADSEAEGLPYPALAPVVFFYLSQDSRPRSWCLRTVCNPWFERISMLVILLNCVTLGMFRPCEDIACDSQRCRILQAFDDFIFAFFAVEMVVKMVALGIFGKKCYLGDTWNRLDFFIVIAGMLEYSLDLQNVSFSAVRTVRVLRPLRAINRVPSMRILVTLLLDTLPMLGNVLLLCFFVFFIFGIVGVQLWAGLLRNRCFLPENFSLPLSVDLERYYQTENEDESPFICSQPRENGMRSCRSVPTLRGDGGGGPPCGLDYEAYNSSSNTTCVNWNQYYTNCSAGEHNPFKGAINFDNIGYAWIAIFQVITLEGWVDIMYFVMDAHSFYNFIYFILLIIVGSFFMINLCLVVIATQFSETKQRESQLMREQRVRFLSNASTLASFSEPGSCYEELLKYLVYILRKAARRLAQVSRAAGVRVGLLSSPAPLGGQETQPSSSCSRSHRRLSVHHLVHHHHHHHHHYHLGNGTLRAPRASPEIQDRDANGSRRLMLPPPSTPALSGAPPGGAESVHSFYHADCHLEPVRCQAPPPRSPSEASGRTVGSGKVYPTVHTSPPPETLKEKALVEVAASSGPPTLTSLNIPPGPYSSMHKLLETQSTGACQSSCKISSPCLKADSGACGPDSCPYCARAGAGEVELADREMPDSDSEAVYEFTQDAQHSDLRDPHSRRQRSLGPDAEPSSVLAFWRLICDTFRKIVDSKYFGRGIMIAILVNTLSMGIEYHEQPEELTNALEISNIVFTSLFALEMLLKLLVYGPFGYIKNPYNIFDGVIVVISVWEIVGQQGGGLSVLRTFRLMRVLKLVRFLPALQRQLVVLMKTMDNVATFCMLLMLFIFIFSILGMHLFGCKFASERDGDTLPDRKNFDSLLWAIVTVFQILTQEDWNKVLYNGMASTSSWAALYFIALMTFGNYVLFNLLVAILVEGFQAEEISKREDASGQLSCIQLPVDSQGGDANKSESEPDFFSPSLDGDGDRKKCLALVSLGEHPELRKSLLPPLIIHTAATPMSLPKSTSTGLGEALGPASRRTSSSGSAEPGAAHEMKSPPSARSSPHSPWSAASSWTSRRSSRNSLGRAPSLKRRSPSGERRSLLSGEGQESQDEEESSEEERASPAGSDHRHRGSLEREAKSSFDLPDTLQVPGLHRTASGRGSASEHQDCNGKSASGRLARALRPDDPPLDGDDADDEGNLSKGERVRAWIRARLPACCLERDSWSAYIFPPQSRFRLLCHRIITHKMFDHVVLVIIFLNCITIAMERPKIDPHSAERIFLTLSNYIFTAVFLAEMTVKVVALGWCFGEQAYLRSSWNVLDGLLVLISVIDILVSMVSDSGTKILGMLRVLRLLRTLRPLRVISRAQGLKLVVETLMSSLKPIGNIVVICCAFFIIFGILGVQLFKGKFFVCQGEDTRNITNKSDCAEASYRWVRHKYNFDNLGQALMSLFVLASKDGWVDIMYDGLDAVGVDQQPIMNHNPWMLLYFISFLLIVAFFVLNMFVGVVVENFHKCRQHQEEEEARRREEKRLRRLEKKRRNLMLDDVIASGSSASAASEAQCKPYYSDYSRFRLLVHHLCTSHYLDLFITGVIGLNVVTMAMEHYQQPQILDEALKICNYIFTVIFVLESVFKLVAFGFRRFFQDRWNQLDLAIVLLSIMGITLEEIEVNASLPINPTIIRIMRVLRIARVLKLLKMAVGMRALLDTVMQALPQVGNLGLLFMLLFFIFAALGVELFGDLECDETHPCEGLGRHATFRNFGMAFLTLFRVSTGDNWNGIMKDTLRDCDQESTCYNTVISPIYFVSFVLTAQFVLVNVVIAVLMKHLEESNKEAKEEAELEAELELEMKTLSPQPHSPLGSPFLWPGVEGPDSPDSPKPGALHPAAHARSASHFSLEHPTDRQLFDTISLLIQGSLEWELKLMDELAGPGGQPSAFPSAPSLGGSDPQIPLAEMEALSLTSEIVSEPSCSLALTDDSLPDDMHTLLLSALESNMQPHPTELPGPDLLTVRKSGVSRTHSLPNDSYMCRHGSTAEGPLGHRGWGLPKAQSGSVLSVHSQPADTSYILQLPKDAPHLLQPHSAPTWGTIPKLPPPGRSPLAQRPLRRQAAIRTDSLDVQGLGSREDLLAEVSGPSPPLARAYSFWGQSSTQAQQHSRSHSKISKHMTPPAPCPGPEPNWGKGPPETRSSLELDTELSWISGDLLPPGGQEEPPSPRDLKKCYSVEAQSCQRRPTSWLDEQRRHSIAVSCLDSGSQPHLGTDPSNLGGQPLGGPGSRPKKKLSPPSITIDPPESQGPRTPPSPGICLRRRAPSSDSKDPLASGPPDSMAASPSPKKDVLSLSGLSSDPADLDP
# T2 sequence (O95180 whole entry): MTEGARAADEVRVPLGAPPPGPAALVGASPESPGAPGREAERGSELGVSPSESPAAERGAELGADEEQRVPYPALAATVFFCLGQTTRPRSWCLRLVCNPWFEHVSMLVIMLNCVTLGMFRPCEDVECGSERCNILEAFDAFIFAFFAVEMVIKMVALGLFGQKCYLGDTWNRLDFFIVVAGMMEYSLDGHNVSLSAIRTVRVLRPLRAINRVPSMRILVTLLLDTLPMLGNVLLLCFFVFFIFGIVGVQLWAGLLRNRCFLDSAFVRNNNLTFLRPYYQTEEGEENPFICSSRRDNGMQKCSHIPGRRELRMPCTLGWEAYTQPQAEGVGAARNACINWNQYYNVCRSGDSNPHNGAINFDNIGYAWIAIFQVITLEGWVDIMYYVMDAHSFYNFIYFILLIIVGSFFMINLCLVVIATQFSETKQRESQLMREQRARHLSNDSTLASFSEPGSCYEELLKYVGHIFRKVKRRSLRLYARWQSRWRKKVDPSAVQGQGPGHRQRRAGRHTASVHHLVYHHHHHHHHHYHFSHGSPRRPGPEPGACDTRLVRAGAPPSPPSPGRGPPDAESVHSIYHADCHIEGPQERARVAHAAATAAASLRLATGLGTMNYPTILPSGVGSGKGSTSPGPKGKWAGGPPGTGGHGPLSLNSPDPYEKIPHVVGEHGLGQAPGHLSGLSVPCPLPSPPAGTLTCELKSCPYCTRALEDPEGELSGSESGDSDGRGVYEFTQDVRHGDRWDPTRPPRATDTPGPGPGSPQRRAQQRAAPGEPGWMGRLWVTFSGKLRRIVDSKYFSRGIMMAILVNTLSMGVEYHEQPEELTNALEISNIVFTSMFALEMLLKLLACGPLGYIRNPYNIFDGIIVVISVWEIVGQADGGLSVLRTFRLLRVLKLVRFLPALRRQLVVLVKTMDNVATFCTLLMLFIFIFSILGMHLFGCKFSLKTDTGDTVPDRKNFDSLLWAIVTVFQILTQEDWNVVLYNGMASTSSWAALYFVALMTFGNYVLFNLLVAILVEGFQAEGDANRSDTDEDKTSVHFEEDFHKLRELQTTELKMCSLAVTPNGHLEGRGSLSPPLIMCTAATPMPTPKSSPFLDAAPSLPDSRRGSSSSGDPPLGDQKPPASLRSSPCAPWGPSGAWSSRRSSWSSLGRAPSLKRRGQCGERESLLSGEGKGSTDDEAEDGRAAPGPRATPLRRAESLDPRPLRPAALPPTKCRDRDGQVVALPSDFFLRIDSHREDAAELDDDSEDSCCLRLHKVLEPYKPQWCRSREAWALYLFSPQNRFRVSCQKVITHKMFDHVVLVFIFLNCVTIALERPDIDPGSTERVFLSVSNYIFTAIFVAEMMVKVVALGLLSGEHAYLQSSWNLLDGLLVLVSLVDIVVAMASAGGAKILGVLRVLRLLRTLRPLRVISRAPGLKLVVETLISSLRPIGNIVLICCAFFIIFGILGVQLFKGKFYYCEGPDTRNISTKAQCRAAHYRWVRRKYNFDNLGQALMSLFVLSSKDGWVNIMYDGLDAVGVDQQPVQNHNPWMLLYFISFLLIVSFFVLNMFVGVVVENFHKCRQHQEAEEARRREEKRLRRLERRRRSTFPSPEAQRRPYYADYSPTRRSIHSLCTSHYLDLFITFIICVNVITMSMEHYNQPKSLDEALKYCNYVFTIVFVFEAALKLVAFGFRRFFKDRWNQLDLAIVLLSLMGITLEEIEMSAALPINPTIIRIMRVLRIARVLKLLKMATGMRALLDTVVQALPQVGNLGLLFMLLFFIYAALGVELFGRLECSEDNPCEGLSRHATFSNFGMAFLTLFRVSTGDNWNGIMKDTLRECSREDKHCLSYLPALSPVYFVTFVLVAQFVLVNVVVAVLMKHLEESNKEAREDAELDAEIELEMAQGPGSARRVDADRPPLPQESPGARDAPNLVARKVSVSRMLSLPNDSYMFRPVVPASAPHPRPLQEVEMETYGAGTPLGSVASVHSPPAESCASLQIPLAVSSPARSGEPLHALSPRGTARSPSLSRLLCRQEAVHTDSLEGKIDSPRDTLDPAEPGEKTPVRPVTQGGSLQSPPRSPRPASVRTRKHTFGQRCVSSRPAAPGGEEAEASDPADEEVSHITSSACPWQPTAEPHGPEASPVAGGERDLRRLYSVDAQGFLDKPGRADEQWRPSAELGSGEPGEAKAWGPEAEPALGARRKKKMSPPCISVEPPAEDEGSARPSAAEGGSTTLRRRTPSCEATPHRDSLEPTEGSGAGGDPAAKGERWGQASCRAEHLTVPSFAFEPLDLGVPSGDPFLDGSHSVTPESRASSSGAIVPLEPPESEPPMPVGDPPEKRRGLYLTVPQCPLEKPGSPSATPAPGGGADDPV
smiles,measurement,setting,value
COc1ccc2c(c1)c(CC(=O)O)c(C)n2C(=O)c1ccc(Cl)cc1 [Indomethacin],"Percentage of activity vs. vehicle, internal reference",rats [1],92%
same,"Percentage of activity vs. vehicle, internal reference",rats [2],64%
"C[C@@H](c1ccccc1)n1nnnc1[C@H](c1ccsc1)N1CCC(n2c(=O)[nH]c3ccccc32)CC1 [5bl, 1-{1-[(S)-{1-[(1S)-1-phenylethyl]-1H-1,2,3,4-tetrazol-5-yl}(thiophen-3-yl)methyl]piperidin-4-yl}-2,3-dihydro-1H-1,3-benzodiazol-2-one]",inhibition of influenza virus polymerase PA-PB1 protein-protein interactions,[3],active
CN1CC[C@]23c4c5ccc(O)c4O[C@H]2[C@@H](O)C=C[C@H]3[C@H]1C5 [Morphine],"Percentage of activity vs. vehicle, internal reference",healthy rats [4],67%
same,"Percentage of activity vs. vehicle, internal reference",healthy rats [5],66%
same,"Percentage of activity vs. vehicle, internal reference",rats [6]; early phase,65%
same,"Percentage of activity vs. vehicle, internal reference",rats [6]; late phase,77%
same,"Percentage of activity vs. vehicle, internal reference",rats [7],107%
CNCC[C@H](Oc1cccc2ccccc12)c1cccs1 [Duloxetine],"Percentage of activity vs. vehicle, internal reference",rats [8],66%
Cc1ccc([C@H](c2nnnn2Cc2ccccc2)N2CCN(C(=O)c3ccccc3)CC2)s1 [3-14-3-S],Activation V1/2,[9],4.083 ± 2.038 mV
same,Activation k (slope factor),[9],9.308 ± 1.780
same,Inactivation V1/2,[9],−25.246 ± 2.129 mV
same,Inactivation k (slope factor),[9],−12.570 ± 2.035
same,peak calcium current density,[9],−41.70±7.927 pA/pF
same,reduction in Ca2+ currents at peak current density,[9],~56.97%
same,effect on CaV3.1 mediated currents,CaV3.1,inhibited
same,IC50,CaV3.1; depolarizing voltage of −10 mV,23 µM
same,effect on CaV3.2 mediated currents,CaV3.2,inhibited
same,IC50,CaV3.2; depolarizing voltage of −10 mV,35.6 µM
same,effect on CaV3.3 mediated currents,CaV3.3,inhibited
same,IC50,CaV3.3; depolarizing voltage of −10 mV,26.3 µM
same,Percentage of activity vs. vehicle,healthy rats [10],3%
same,Percentage of activity vs. vehicle,healthy rats [11],5%
same,Percentage of activity vs. vehicle,rats [12],33%
same,Percentage of activity vs. vehicle,rats [13]; paw licking time early phase,16%
same,Percentage of activity vs. vehicle,rats [13]; paw licking time late phase,36%
same,Percentage of activity vs. vehicle,rats [14],14%
same,Percentage of activity vs. vehicle,rats [15],6%
same,Percentage of activity vs. vehicle,rats [16],29%
same,Percentage of activity vs. vehicle,rats [17],−11%
same,"Ca2+ influx triggered with 90 mM KCl (response, normalized)",[18],87.25±2.245%
Cc1cccc(C)c1-n1nnnc1[C@@H](Cc1ccccc1)N1CCN(S(=O)(=O)c2ccccc2)CC1 [3-25-R],Activation V1/2,[9],2.383 ± 2.037 mV
same,Activation k (slope factor),[9],9.659 ± 1.798
same,Inactivation V1/2,[9],−26.709 ± 2.655 mV
same,Inactivation k (slope factor),[9],−15.208 ± 2.714
same,peak calcium current density,[9],−54.1±8.385 pA/pF
same,reduction in Ca2+ currents at peak current density,[9],~44.17%
same,effect on CaV3.1 mediated currents,CaV3.1,negligible effects
same,effect on CaV3.2 mediated currents,CaV3.2,negligible effects
same,effect on CaV3.3 mediated currents,CaV3.3,negligible effects
same,"Ca2+ influx triggered with 90 mM KCl (response, normalized)",[18],62.43±1.967%
O=C(Nc1cccc([C@H](c2nnnn2Cc2ccccc2)N2CCN(C(=O)c3ccco3)CC2)c1)c1ccc(Br)cc1 [1-159-2-R],"Ca2+ influx triggered with 90 mM KCl (response, normalized)",[18],67.37±2.294%
